Test results from patent publication US4469701A, “Pyrrolid-3-en-2-ones and pharmaceutical methods of use thereof” (Stauffer Chemical Company, priority 1983, dated 1984).

Legend:
[1] = test system: spontaneously hypertensive rats (SHR); assay: Antihypertensive: blood pressure (tail cuff) in spontaneously hypertensive rats (SHR); assay type: in vivo, rat; settings: Rattus norvegicus; 6 hr. after a 100 mg/kg oral dose; significance >10; read-out: Antihypertensive: percent decrease in systolic blood pressure in spontaneously hypertensive rats
Procedure: Blood pressure was measured indirectly (tail cuff) in unanesthetized, unheated spontaneously hypertensive rats (SHR) before and 2, 4, and 6 hours after p.o. dosing. Reduction in mean pressure by more than 10% (>10) at any two consecutive measurement times after dosing indicates antihypertensive activity.

[2] = test system: hypercholesterolemic mice; assay: Hypocholesterolemic: serum cholesterol in hypercholesterolemic mice; assay type: in vivo, mouse; settings: for inhibition in vivo at 200 mg/kg: Mus musculus, hypercholesterolemic mice, 2 oral doses of 200 mg/kg 20 hr. apart, significance >20, read-out: C = Hypocholesterolemic: percent decrease in serum cholesterol
Procedure: Mice made hypercholesterolemic by being fed a high cholesterol-cholic acid diet for 7 days were dosed on the sixth and seventh days, p.o. After fasting overnight, reduction in serum cholesterol concentration by more than 15% (>15) from hypercholesterolemic control mice indicates activity.
^4 C = Hypocholesterolemic. Percent decrease in serum cholesterol in
hypercholesterolemic mice given 2 oral doses of 200 mg/kg drug candidate

[3] = test system: rats; assay: Antiulcer: stress induced gastric ulcers in rats; assay type: in vivo, rat; settings: for inhibition in vivo at 50 mg/kg: Rattus norvegicus, 4 hr. following a 50 mg/kg oral dose in rats, significance >60, read-out: U = Antiulcerative: percent inhibition of stress ulcers
Procedure: Fasted rats were dosed, p.o., 30 minutes before immobilization in wire mesh and partial immersion in water for 4 hours. Inhibition of the resulting stress induced gastric ulcers by more than 60% (>60) indicates activity.
^6 U = Antiulcerative. Percent inhibition of stress ulcers 4 hr.
following a 50 mg/kg oral dose in rats.

[4] = test system: glucose-loaded mice; assay: Hypoglycemic, glucose-loaded mice; assay type: in vivo, mouse; settings: glucose loaded mice, 100 mg/kg oral dose; significance >20
Procedure: Reduction in blood glucose concentration by more than 20% (>20) in fasted, glucose-loaded (1 gm/kg) mice one hour after dosing, p.o., indicates activity (test compound administered at same time as glucose load).
^5 H = Hypoglycemic. Percent decrease in serum glucose concentration
in glucose loaded mice hr. following a 100 mg/kg oral dose.

[5] = test system: mice; assay: Antiarrhythmic: chloroform-induced cardiac arrhythmia in mice; assay type: in vivo, mouse; settings: 15 min. after a 200 mg/kg intraperitoneal dose; significance <2
Procedure: ^2 A = Antiarrythmic. Less than 2/3 mouse hearts fibrillating 15 min.

[6] = Overall pharmacological profile; settings: in vivo
[7] = test system: rats; assay: Bradycardia: heart rate by EKG in rats; assay type: in vivo, rat; settings: for inhibition in vivo at 5 mg/kg: Rattus norvegicus, 0.75 h, 45 min. after a 5 mg/kg oral dose in rats, significance >10, read-out: B = Bradycardiac: percent decrease in heart rate
Procedure: […] Decrease in heart rate by more than 10% (>10) is considered a bradycardic effect.
Percent decrease in heart rate 45 min. after a 5
mg/kg oral dose in rats.

[8] = Anticholinergic properties (overall statement); settings: in vivo
[9] = test system: hypercholesterolemic mice; assay: HP-betalipoprotein: serum heparin precipitating lipoprotein (HPL); assay type: in vivo, mouse; settings: 200 and 400 mg/kg, p.o.
Source text: Reduction of serum heparin precipitating lipoprotein (HPL) concentrations (corresponding to low density lipoprotein and very low density lipoprotein fractions) in the same hypercholesterolemic mice from Test 6 above by more than 20% (>20) from control animals indicates activity.

[10] = Estrogenic effects; settings: in vivo

Structure (SMILES): CC1(C)CCCC(C)(C)N1CC1=CC(=O)N(c2ccc(C(F)(F)F)cc2)C1 [Compound 7]
- inhibition in vivo at 100 mg/kg [1]: 16%
- inhibition in vivo at 200 mg/kg [2]: 0%
- inhibition in vivo at 50 mg/kg [3]: 38%
- H = Hypoglycemic: percent decrease in serum glucose concentration [4]: 22%
- A = Antiarrythmic: mouse hearts fibrillating (of 3) [5]: 3
- Profile (comparison with another compound) [6]: generally similar to that of Compound 6
- inhibition in vivo at 5 mg/kg [7]: 12%

Structure (SMILES): CC1(C)CCCC(C)(C)N1CC1=CC(=O)N(c2cc(C(F)(F)F)ccc2Cl)C1 [Compound 10]
- inhibition in vivo at 100 mg/kg [1]: 15%
- Serum cholesterol, in words ([2]; 200 and 400 mg/kg, p.o.): Marked reductions
- inhibition in vivo at 200 mg/kg [2]: 46%
- Protection from stress-induced gastric ulcers, in words ([3]; 50 mg/kg, p.o., rats): partially protected
- inhibition in vivo at 50 mg/kg [3]: 75%
- A = Antiarrythmic: mouse hearts fibrillating (of 3) [5]: 3
- Anticholinergic properties/effects [8]: absence of evidence of anticholinergic effects
- inhibition in vivo at 5 mg/kg [7]: 1%
- Bradycardic effects, in words ([7]; rat, in vivo): No
- HPL/cholesterol ratio [9]: large reductions
- Heparin precipitating lipoproteins (HPL), in words [9]: Marked reductions
- Estrogenic effects [10]: No estrogenic effects

Structure (SMILES): COc1ccc(N2CC(CN3C(C)(C)CCCC3(C)C)=CC2=O)cc1OC [Compound 12]
- inhibition in vivo at 100 mg/kg [1]: 14%
- inhibition in vivo at 200 mg/kg [2]: 3%
- inhibition in vivo at 50 mg/kg [3]: 75%
- A = Antiarrythmic: mouse hearts fibrillating (of 3) [5]: 2
- Profile (comparison with another compound) [6]: generally similar to that of Compound 6
- inhibition in vivo at 5 mg/kg [7]: 13%
